Source: patent US7192931B2, “Treatment of demyelinating diseases” (Neuren Pharmaceuticals Ltd., priority 2000, dated 2007)

What was measured:
[1] = test system: C57Bl/6 mice with MOG35-55 peptide-induced EAE; test: Expanded disability status scale for EAE treated mice; format: in vivo, mouse; settings: for total scores (disability scale): at day 70 as printed, 35 for rat IgG treated control mice; for Maximal disability score: Alertness / Maximal disability score: Bladder function / Maximal disability score: Eye movements / Maximal disability score: Motor (grip)* / Maximal disability score: Other signs (shine hairs and loose skin) / Maximal disability score: Sensory* Light touch / Maximal disability score: Sensory* Pain / Maximal disability score: Spontaneous mobility / Maximal disability score: Tone* / Maximal disability score: Tremor / Maximal disability score: Vision (including pupillary reflex) / Total expanded disability scale: mean values
Protocol: C57Bl/6 mice (8–10 week old) were injected subcutaneously in one flank with 300 μg of MOG35-55 peptide ([…]: SEQ ID NO:1) synthesized by Mimotapes Pty Ltd, Clayton, Australia and emulsified in CFA containing 500 μg of Mycobacterium tuberculosis H37Ra (DIFCO Laboratories, Detrit, USA). They also received 500 ng of pertussis toxin (List Biological Laboratories, CA, USA) in 200 μl PBS intravenously via the tail vein, followed 48 hours later by a second dose. A second injection of MOG peptide was given in the absence of pertussis toxin one week later in the opposite flank, as described previously (Kanwar et al., 2000b).
Two treatment protocols were employed, involving the treatment of early disease, versus advanced disease. For early disease, reagents were administered at day 35 (following MOG injection). Antibody was administered thrice on alternate days, whereas neuroprotectors were given daily for 6 days, where 50% of reagent was given ip and 50% iv. In the treatment of advanced disease, therapy as above was initiated at day 60, with either three or eight anti-MAdCAM-1 mAb injections, and neuroprotectors given daily for either 7 or 18 days.
The mice were monitored daily and scored according to the following scale: 0, no clinical signs of EAE; 1, limp tail; 2, partial hind limb paralysis; 3, complete hind limb paralysis; 4, complete hind limb and partial fore limb paralysis; 5, paralysis extending to diaphragm; 6, hind and fore limb paralysis; 7, death due to EAE. Paralysis extending to the diaphragm was denoted as difficulty in remaining upright. […] The daily mean clinical score for each group is the mean disease score of at least five mice. The body weight of animals was measured regularly throughout the experiments. The expanded disability status scale for EAE treated mice was scored using an earlier published scoring system (Villoslada et al. 2000).

oligodendrocytes = test: Oligodendrocyte loss by CNPase immunostaining of dorsal columns; format: in vivo, mouse; settings: 31 for rat IgG and 26 for PBS treated control mice
Text: Frozen sections from lumbar spinal cord (10 μm) were acetone-fixed and immunostained for oligodendrocyte content with an antibody against CNPase (Sigma; diluted 1:100); for axonal damage with an antibody against non-phosphorylated neurofilament-H (SM 1-32; Stemberger Monoclonals Incorporated, Lutherville, Md., USA; diluted 1:1000), and for GluR2 and NR1 content using mouse mAbs obtained from Zymed Laboratories Inc., Carlton, San Francisco, Calif. Antibody staining was visualized with an avidin:biotinylated enzyme complex (Vector Laboratories, Burlingame, Calif., USA). Sections were viewed under a light microscope, and cells stained with the anti-CNPase and SM 1-32 antibodies were counted.
To evaluate the effects of the different treatment regimes on the loss of oligodendrocytes, a key cellular target in demyelinating diseases of the CNS, oligodendrocytes were enumerated by immunohistochemical staining of spinal cord sections and the number of oligodendrocytes within the dorsal columns of […] transverse sections were counted (FIG. 5B), and reductions in oligodendrocyte numbers were calculated and expressed as % loss of oligodendrocytes per dorsal section (FIG. 5C). […]

NS(=O)(=O)c1cccc2c1c([N+](=O)[O-])cc1nc(O)c(O)nc12 [NBQX, 2,3-dihydroxy-6-nitro-7-sulfamoylbenzo(f)quinoxaline]
4: Maximal disability score: Motor (grip)* ([1]; day 65 after immunization) | Maximal disability score: Motor (grip)* ([1]; day 70 after immunization) | Maximal disability score: Tone* ([1]; day 70 after immunization) | Maximal disability score: Sensory* Light touch ([1]; day 75 after immunization) | Maximal disability score: Tone* ([1]; day 75 after immunization) | Maximal disability score: Motor (grip)* ([1]; day 119 after immunization) | Maximal disability score: Sensory* Light touch ([1]; day 119 after immunization) | Maximal disability score: Sensory* Pain ([1]; day 119 after immunization) | Maximal disability score: Tone* ([1]; day 119 after immunization)
0: Maximal disability score: Bladder function ([1]; day 55 after immunization) | Maximal disability score: Bladder function ([1]; day 65 after immunization) | Maximal disability score: Eye movements ([1]; day 65 after immunization) | Maximal disability score: Other signs (shine hairs and loose skin) ([1]; day 65 after immunization) | Maximal disability score: Sensory* Light touch ([1]; day 65 after immunization) | Maximal disability score: Sensory* Pain ([1]; day 65 after immunization) | Maximal disability score: Tremor ([1]; day 65 after immunization) | Maximal disability score: Vision (including pupillary reflex) ([1]; day 65 after immunization) | Maximal disability score: Bladder function ([1]; day 70 after immunization) | Maximal disability score: Other signs (shine hairs and loose skin) ([1]; day 70 after immunization) | Maximal disability score: Sensory* Light touch ([1]; day 70 after immunization) | Maximal disability score: Sensory* Pain ([1]; day 70 after immunization) | Maximal disability score: Tremor ([1]; day 70 after immunization) | Maximal disability score: Vision (including pupillary reflex) ([1]; day 70 after immunization) | Maximal disability score: Eye movements ([1]; day 75 after immunization) | Maximal disability score: Other signs (shine hairs and loose skin) ([1]; day 75 after immunization) | Maximal disability score: Tremor ([1]; day 75 after immunization) | Maximal disability score: Bladder function ([1]; day 119 after immunization) | Maximal disability score: Vision (including pupillary reflex) ([1]; day 119 after immunization)
13: Total expanded disability scale ([1]; day 70 after immunization)
13%: % loss of oligodendrocytes per dorsal section (oligodendrocytes)
53: Total expanded disability scale ([1]; day 55 after immunization) | Total expanded disability scale ([1]; day 60 after immunization)
30: total scores (disability scale) [1] | Total expanded disability scale ([1]; day 75 after immunization)
3: Maximal disability score: Other signs (shine hairs and loose skin) ([1]; day 55 after immunization) | Maximal disability score: Spontaneous mobility ([1]; day 55 after immunization) | Maximal disability score: Spontaneous mobility ([1]; day 60 after immunization) | Maximal disability score: Spontaneous mobility ([1]; day 70 after immunization) | Maximal disability score: Spontaneous mobility ([1]; day 75 after immunization)
23: Total expanded disability scale ([1]; day 119 after immunization)
2: Maximal disability score: Alertness ([1]; day 55 after immunization) | Maximal disability score: Tremor ([1]; day 55 after immunization) | Maximal disability score: Alertness ([1]; day 60 after immunization) | Maximal disability score: Other signs (shine hairs and loose skin) ([1]; day 60 after immunization) | Maximal disability score: Tremor ([1]; day 60 after immunization) | Maximal disability score: Spontaneous mobility ([1]; day 65 after immunization) | Maximal disability score: Other signs (shine hairs and loose skin) ([1]; day 119 after immunization) | Maximal disability score: Spontaneous mobility ([1]; day 119 after immunization)
15: Total expanded disability scale ([1]; day 65 after immunization)
1: Maximal disability score: Eye movements ([1]; day 55 after immunization) | Maximal disability score: Vision (including pupillary reflex) ([1]; day 55 after immunization) | Maximal disability score: Bladder function ([1]; day 60 after immunization) | Maximal disability score: Eye movements ([1]; day 60 after immunization) | Maximal disability score: Vision (including pupillary reflex) ([1]; day 60 after immunization) | Maximal disability score: Alertness ([1]; day 65 after immunization) | Maximal disability score: Alertness ([1]; day 70 after immunization) | Maximal disability score: Eye movements ([1]; day 70 after immunization) | Maximal disability score: Alertness ([1]; day 75 after immunization) | Maximal disability score: Bladder function ([1]; day 75 after immunization) | Maximal disability score: Vision (including pupillary reflex) ([1]; day 75 after immunization) | Maximal disability score: Alertness ([1]; day 119 after immunization) | Maximal disability score: Eye movements ([1]; day 119 after immunization) | Maximal disability score: Tremor ([1]; day 119 after immunization)
8: Maximal disability score: Sensory* Light touch ([1]; day 55 after immunization) | Maximal disability score: Sensory* Pain ([1]; day 55 after immunization) | Maximal disability score: Sensory* Light touch ([1]; day 60 after immunization) | Maximal disability score: Sensory* Pain ([1]; day 60 after immunization) | Maximal disability score: Tone* ([1]; day 65 after immunization) | Maximal disability score: Motor (grip)* ([1]; day 75 after immunization) | Maximal disability score: Sensory* Pain ([1]; day 75 after immunization)
12: Maximal disability score: Motor (grip)* ([1]; day 55 after immunization) | Maximal disability score: Tone* ([1]; day 55 after immunization) | Maximal disability score: Motor (grip)* ([1]; day 60 after immunization) | Maximal disability score: Tone* ([1]; day 60 after immunization)

Gly-Pro-Glu [GPE]
2: Maximal disability score: Alertness ([1]; day 55 after immunization) | Maximal disability score: Tremor ([1]; day 55 after immunization) | Maximal disability score: Alertness ([1]; day 60 after immunization) | Maximal disability score: Other signs (shine hairs and loose skin) ([1]; day 60 after immunization) | Maximal disability score: Tremor ([1]; day 60 after immunization) | Maximal disability score: Spontaneous mobility ([1]; day 65 after immunization) | Maximal disability score: Spontaneous mobility ([1]; day 119 after immunization)
8: Maximal disability score: Sensory* Light touch ([1]; day 55 after immunization) | Maximal disability score: Sensory* Pain ([1]; day 55 after immunization) | Maximal disability score: Sensory* Light touch ([1]; day 60 after immunization) | Maximal disability score: Sensory* Pain ([1]; day 60 after immunization) | Maximal disability score: Tone* ([1]; day 65 after immunization)
12: Maximal disability score: Motor (grip)* ([1]; day 55 after immunization) | Maximal disability score: Tone* ([1]; day 55 after immunization) | Maximal disability score: Motor (grip)* ([1]; day 60 after immunization) | Maximal disability score: Tone* ([1]; day 60 after immunization)
14%: % loss of oligodendrocytes per dorsal section (oligodendrocytes)
15: Total expanded disability scale ([1]; day 65 after immunization)
13: Total expanded disability scale ([1]; day 70 after immunization)
10: total scores (disability scale) [1] | Total expanded disability scale ([1]; day 75 after immunization)
17: Total expanded disability scale ([1]; day 119 after immunization)
52: Total expanded disability scale ([1]; day 55 after immunization) | Total expanded disability scale ([1]; day 60 after immunization)
3: Maximal disability score: Other signs (shine hairs and loose skin) ([1]; day 55 after immunization) | Maximal disability score: Spontaneous mobility ([1]; day 55 after immunization) | Maximal disability score: Spontaneous mobility ([1]; day 60 after immunization) | Maximal disability score: Spontaneous mobility ([1]; day 70 after immunization) | Maximal disability score: Spontaneous mobility ([1]; day 75 after immunization)
4: Maximal disability score: Motor (grip)* ([1]; day 65 after immunization) | Maximal disability score: Motor (grip)* ([1]; day 70 after immunization) | Maximal disability score: Tone* ([1]; day 70 after immunization) | Maximal disability score: Tone* ([1]; day 75 after immunization) | Maximal disability score: Sensory* Light touch ([1]; day 119 after immunization) | Maximal disability score: Sensory* Pain ([1]; day 119 after immunization) | Maximal disability score: Tone* ([1]; day 119 after immunization)
0: Maximal disability score: Bladder function ([1]; day 55 after immunization) | Maximal disability score: Bladder function ([1]; day 65 after immunization) | Maximal disability score: Eye movements ([1]; day 65 after immunization) | Maximal disability score: Other signs (shine hairs and loose skin) ([1]; day 65 after immunization) | Maximal disability score: Sensory* Light touch ([1]; day 65 after immunization) | Maximal disability score: Sensory* Pain ([1]; day 65 after immunization) | Maximal disability score: Tremor ([1]; day 65 after immunization) | Maximal disability score: Vision (including pupillary reflex) ([1]; day 65 after immunization) | Maximal disability score: Bladder function ([1]; day 70 after immunization) | Maximal disability score: Other signs (shine hairs and loose skin) ([1]; day 70 after immunization) | Maximal disability score: Sensory* Light touch ([1]; day 70 after immunization) | Maximal disability score: Sensory* Pain ([1]; day 70 after immunization) | Maximal disability score: Tremor ([1]; day 70 after immunization) | Maximal disability score: Vision (including pupillary reflex) ([1]; day 70 after immunization) | Maximal disability score: Eye movements ([1]; day 75 after immunization) | Maximal disability score: Motor (grip)* ([1]; day 75 after immunization) | Maximal disability score: Other signs (shine hairs and loose skin) ([1]; day 75 after immunization) | Maximal disability score: Sensory* Light touch ([1]; day 75 after immunization) | Maximal disability score: Sensory* Pain ([1]; day 75 after immunization) | Maximal disability score: Tremor ([1]; day 75 after immunization) | Maximal disability score: Bladder function ([1]; day 119 after immunization) | Maximal disability score: Motor (grip)* ([1]; day 119 after immunization) | Maximal disability score: Other signs (shine hairs and loose skin) ([1]; day 119 after immunization) | Maximal disability score: Vision (including pupillary reflex) ([1]; day 119 after immunization)
1: Maximal disability score: Eye movements ([1]; day 55 after immunization) | Maximal disability score: Vision (including pupillary reflex) ([1]; day 55 after immunization) | Maximal disability score: Bladder function ([1]; day 60 after immunization) | Maximal disability score: Eye movements ([1]; day 60 after immunization) | Maximal disability score: Vision (including pupillary reflex) ([1]; day 60 after immunization) | Maximal disability score: Alertness ([1]; day 65 after immunization) | Maximal disability score: Alertness ([1]; day 70 after immunization) | Maximal disability score: Eye movements ([1]; day 70 after immunization) | Maximal disability score: Alertness ([1]; day 75 after immunization) | Maximal disability score: Bladder function ([1]; day 75 after immunization) | Maximal disability score: Vision (including pupillary reflex) ([1]; day 75 after immunization) | Maximal disability score: Alertness ([1]; day 119 after immunization) | Maximal disability score: Eye movements ([1]; day 119 after immunization) | Maximal disability score: Tremor ([1]; day 119 after immunization)
